Reference: patent US7919481B2, “Inositol pyrophosphates, and methods of use thereof” (NormOxys, Inc., priority 2002, dated 2011)
Where two headings read alike, the source gives them in different places.

How the values were obtained:
[1] = 1-octanol/water partition coefficient Kow; type: physicochemical; conditions: after equilibration at 30 mM
Protocol: Partition coefficients relate to the distribution of a solute between two immiscible liquid phases and are defined as the ratios of concentrations (or molar fraction) of the distributed solute.
The partition coefficients for our compounds, Kow=[ITPP]1-octanol/[ITPP]water, were measured after equilibration at a concentration of 30 mM, close to the typical concentration employed for biological evaluations.

[2] = tested on: circulating RBC; test: P50 shift of circulating RBC after (intraperitoneal) injection in mice; conditions: maximum; for shift in the Hb-O2 dissociation curve: IP injection
[3] = tested on: mouse whole blood; test: In vitro P50 in whole blood after incubation with effector; type: cell-based; conditions: effector 60 mM
Protocol: (§1) As usual, pH's for the compound-solutions were adjusted to ˜7.0, osmolarities for both solutions were determined (325-373 mOsM) prior to effectors, and whole blood volumes at 1:1 ratios were incubated.

[4] = tested on: human whole blood; test: as above; type: cell-based; conditions: effector 60 mM
Protocol: as §1

[5] = tested on: pig whole blood; test: as above; type: cell-based; conditions: effector 60 mM
Protocol: as §1

[6] = tested on: whole blood; test: In vitro incubation of whole blood of three species, summary statements; type: cell-based, human, mouse and pig; conditions: whole blood of human, mouse and pig, 60 mM
Protocol: as §1

[7] = target: porcine hemoglobin (Sus scrofa, UniProt P02067); test: In vitro P50 of porcine free hemoglobin with effector; type: biochemical, pig; conditions: porcine free hemoglobin 2.5 mM, effector 2.5 mM, 1:1; for P50 mm Hg: control 20.4, 19.9
Chain of porcine hemoglobin (P01965 whole entry partner): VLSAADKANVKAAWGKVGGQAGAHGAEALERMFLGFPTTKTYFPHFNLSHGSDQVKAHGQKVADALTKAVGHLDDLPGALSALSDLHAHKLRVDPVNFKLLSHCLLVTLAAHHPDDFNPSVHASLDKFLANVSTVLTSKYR
Chain of porcine hemoglobin (P02067 2-147 limits assumed): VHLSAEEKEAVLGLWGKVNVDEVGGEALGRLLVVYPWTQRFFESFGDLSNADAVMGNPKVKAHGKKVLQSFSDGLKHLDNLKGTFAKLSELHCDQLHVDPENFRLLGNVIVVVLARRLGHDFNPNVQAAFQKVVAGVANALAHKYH
Protocol: (§2) Two further effectors, kf133 and kf137, were tested in vitro for P50 shifts with porcine hemoglobin and whole blood. The compounds were well soluble. As usual, pH was adjusted to ˜7.0 and effector solution (2.5 mM) and hemoglobin (2.5 mM) were mixed at a 1:1 ratio. Whole blood and the effector solution were mixed at iso-osmolarity at pH=7. P50 values were measured as described in the previous experiments.

[8] = tested on: porcine whole blood; test: In vitro P50 of porcine whole blood with effector (iso-osmolar); type: cell-based, pig; conditions: for P50 mm Hg: control 33.5
Protocol: as §2

[9] = tested on: C57BL/6 mice; test: Tolerability of intraperitoneal injection in mice; type: in vivo; conditions: concentration of (up to) 120 mM
[10] = Solubility of effector solutions; type: physicochemical; conditions: pH ~7.0
Protocol: as §2

[11] = Chemical hydrolysis of IHP-pyrophosphate at alkaline pH (31P-NMR); type: physicochemical
Protocol: Experiments designed to test IHP-pyrophosphate's resistance to chemical hydrolysis were conducted. ITPP N,N-dimethyl-cyclohexylammonium salt solutions were adjusted at pH 8.66, 10.20, 12.05 and 13.30. In order to avoid any damage to the NMR tubes due to the highly alkaline solutions, all samples were checked using ^31P-NMR at different time intervals against an external Ph3PO/DMSO solution. This method also avoided concentrating the samples and redissolving them in a deuterated solvent, which may have led to changes in the results. […] Observing this stability, we exposed the pH=13.30 sample to heat at 60° C. for 6 h. […] After 22 h at the same temperature, hydrolysis was only 19%. Facing this extreme stability to chemical hydrolysis we concentrated to dryness both solutions of pH 10.20 and 13.30 and dissolved them in D2O.

[12] = Toxicity, general statements on the biological experiments; type: in vivo; conditions: general statement
[13] = tested on: baker's yeast; type: in vitro ADME; conditions: pH 4.6
Protocol: ITPP was dissolved in a buffer solution of a pH 4.6 and heated in the presence of baker's yeast for 12 h at 45° C. Non selective hydrolysis of approximately 25% occurred.

[14] = target: stripped hemoglobin (Homo sapiens, UniProt P68871); conditions: cited from earlier work
Chain of stripped hemoglobin (P69905 2-142 partner limits assumed): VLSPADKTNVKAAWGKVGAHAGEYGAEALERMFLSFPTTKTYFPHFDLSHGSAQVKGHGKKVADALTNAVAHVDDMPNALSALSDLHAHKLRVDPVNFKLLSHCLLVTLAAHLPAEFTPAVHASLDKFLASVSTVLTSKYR
Chain of stripped hemoglobin (P68871 2-147 limits assumed): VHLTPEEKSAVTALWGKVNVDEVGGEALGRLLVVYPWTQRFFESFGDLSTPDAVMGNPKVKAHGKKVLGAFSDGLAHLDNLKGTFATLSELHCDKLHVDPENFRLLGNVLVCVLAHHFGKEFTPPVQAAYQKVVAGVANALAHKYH

[15] = porcine whole blood, iso-osmolarity, pH=7

With `NC1CCCCCCC1.NC1CCCCCCC1.NC1CCCCCCC1.NC1CCCCCCC1.NC1CCCCCCC1.NC1CCCCCCC1.O=P1(O)OP(=O)(O)O[C@H]2[C@H](O1)[C@@H]1OP(=O)(O)OP(=O)(O)O[C@@H]1[C@H]1OP(=O)(O)OP(=O)(O)O[C@H]21` [cyclooctylammonium ITPP salt] the “Kow=[ITPP]1-octanol/[ITPP]water” value [1] was 0.462.

With “IHP Cholesteryoxy Carbonyl Hepta N,N-Dimethyl Cyclohexyl Ammonium Salt [kf96]” the “shift in the Hb-O2 dissociation curve” value ([2]; 30 mM) was “up to 17%”, the “shift in the Hb-O2 dissociation curve” value ([2]; 60 mM) was “up to 24%” and the “P50 Increase %” value ([3]; 1:1) was 20%. For the same molecule, the “P50 mm Hg” value ([3]; 1:1, control 36.7) was 43.9 mm Hg, the “P50 Increase %” value ([4]; 1:1) was 27% and the “P50 mm Hg” value ([4]; 1:1, control 22.1) was 28 mm Hg. The “P50 Increase %” value ([5]; 1:1) was 27%, the “P50 mm Hg” value ([5]; 1:1, control 32.2) was 41.1 mm Hg and the “right shift in the Hb-O2 dissociation curve, all blood samples” value [6] was 27%.

With Hexanoy-IHP NN-DMCHA salt [kf137] the “P50 Increase %” value [7] was 120%, the “P50 mm Hg” value [7] was 45.1 mm Hg and the “lysis of the RBC” value ([8]; porcine whole blood in vitro) was “Noticeable lysis”. The “P50 mm Hg” value [8, 15] was 51.5 mm Hg, the tolerability in mice [9] was “well tolerated” and the “solubility” value [10] was “well soluble”.

With `NC1CCCCCC1.NC1CCCCCC1.NC1CCCCCC1.NC1CCCCCC1.NC1CCCCCC1.NC1CCCCCC1.O=P1(O)OC2C3OP(=O)(O)OP(=O)(O)OC3C3OP(=O)(O)OP(=O)(O)OC3C2OP(=O)(O)O1` (stereo not shown) [cycloheptylammonium ITPP salt] the “Kow=[ITPP]1-octanol/[ITPP]water” value [1] was 0.0121.

With “N,N-Dimethyl cyclohexyl ammonium Salt of Myo-inositol 1,6:2,3:4,5-Tripyrophosphate” the “hydrolysis (changes in 31P-NMR)” value ([11]; pH 8.66, 10.20, 12.05, after 3 days) was “No changes were observed”, the “change after concentration to dryness” value ([11]; pH 10.20, redissolved in D2O) was “remained unchanged” and the hydrolysis ([11]; pH=13.30, 60° C. for 6 h) was 13%. For the same molecule, the hydrolysis ([11]; pH=13.30, 60° C., after 22 h) was 19%, the hydrolysis ([11]; pH=13.3, after 3 days) was 7% and the “change after concentration to dryness” value ([11]; pH=13.30, redissolved in D2O) was “completely converted to the IHP open form sodium salt”.

For “IHP Cholesteryoxy Carbonyl Hepta N,N-Dimethyl Cyclohexyl Ammonium Salt [kf16.4]”, the “right shift in the P50” value ([2]; ip, 6 animals) was “up to 18%”.

In the case of “IHP monopyrophosphate hexasodium salt [kf133]”, the toxicity / tolerability [12] was “non-toxic”, the “P50 Increase %” value [7] was 143% and the “P50 mm Hg” value [7] was 48.5 mm Hg. The “P50 Increase %” value [8, 15] was 14.5%, the “P50 mm Hg” value [8, 15] was 38.4 mm Hg and the tolerability in mice [9] was “well tolerated”. For the same molecule, the “solubility” value [10] was “well soluble”.

For `O=P1(O)OC2C3OP(=O)(O)OP(=O)(O)OC3C3OP(=O)(O)OP(=O)(O)OC3C2OP(=O)(O)O1` (stereo not shown) [ITPP, inositol tripyrophosphate], the “non selective enzymatic hydrolysis” value [13] was “approximately 25%”.

For `O=C(O)[C@@H](COP(=O)(O)O)OP(=O)(O)O` [2,3-Diphosphoglycerate, 2,3-diphosph-D-glyceric acid], the “O2 half-saturation pressure P(O2)(½) of stripped hemoglobin” value ([14]; pH 7.4, 25° C.) is listed as 12.0 mm Hg and the “O2 half-saturation pressure P(O2)(½) of stripped hemoglobin” value ([14]; pH 7.4, 37° C.) is listed as 23.7 mm Hg.
